What all share (assay): Bacterial growth inhibition assay
Holding throughout (details): reference compound

The subject of test [1] is P. aeruginosa (ATCC 27853). The format is cell-based, Pseudomonas aeruginosa. Also noted: unit not given beside the values. As to the method: (§1) The prepared samples were tested for in vitro antimicrobial activity against E. faecalis, E. coli, P. aeruginosa, S. aureus, Streptococcus agalactiae and S. epidermis using gentamycin as a reference compound.
To determine and quantify antimicrobial activity, a bacteria growth inhibition assay in liquid media was executed. Compounds 2–3, 4, 8–10, 13–14, 16, 18, and 20 were tested against Staphylococcus aureus (ATCC 25923), Escherichia coli (ATCC 259233), Enterococcus faecialis (ATCC 29122), Pseudomonas aeruginosa (ATCC 27853) and Streptococcus agalactiae (ATCC 12386); all strains from LGC Standards (Teddington, UK). S. aureus, E. coli, and P. aeruginosa were grown in Muller Hinton broth (275730, Becton, Franklin Lakes, NJ, USA). E. faecalis and S. agalactiae were cultured in brain hearth infusion broth (53286, Sigma, St Louise, MO, USA). Fresh bacterial colonies were transferred in the respective medium and incubated at 37 °C overnight. The bacterial cultures were diluted to a culture density representing the log phase and µL/well were pipetted into a 96-well microtiter plate (734–2097, NunclonTM, Thermo Scientific, Waltham, MA, USA). […] After adding the samples to the plates, they were incubated overnight at 37 °C and the growth was determined by measuring the optical density at λ = 600 nm (OD600) with a 1420 Multilabel Counter VICTOR3TM (Perkin Elmer, Waltham, MA, USA). […]

Test [2] concerns S. aureus (ATCC 25923). It counts as cell-based, Staphylococcus aureus. More on the design: MIC (Gentamycin, unit not given): unit not given beside the values. The procedure: as §1
(§2) To determine and quantify antimicrobial activity, a bacteria growth inhibition assay in liquid media was executed. Compounds 2–3, 4, 8–10, 13–14, 16, 18, and 20 were tested against Staphylococcus aureus (ATCC 25923), Escherichia coli (ATCC 259233), Enterococcus faecialis (ATCC 29122), Pseudomonas aeruginosa (ATCC 27853) and Streptococcus agalactiae (ATCC 12386); all strains from LGC Standards (Teddington, UK). S. aureus, E. coli, and P. aeruginosa were grown in Muller Hinton broth (275730, Becton, Franklin Lakes, NJ, USA). E. faecalis and S. agalactiae were cultured in brain hearth infusion broth (53286, Sigma, St Louise, MO, USA). Fresh bacterial colonies were transferred in the respective medium and incubated at 37 °C overnight. The bacterial cultures were diluted to a culture density representing the log phase and µL/well were pipetted into a 96-well microtiter plate (734–2097, NunclonTM, Thermo Scientific, Waltham, MA, USA). The final cell density was 1500–15.000 colony forming units/well. The compound was diluted in 2% (v/v) DMSO in ddH2O, providing a final assay concentration of 50% of the prepared sample, since 50 µL of sample in DMSO/water were added to 50 µL bacterial culture. After adding the samples to the plates, they were incubated overnight at 37 °C and the growth was determined by measuring the optical density at λ = 600 nm (OD600) with a 1420 Multilabel Counter VICTOR3TM (Perkin Elmer, Waltham, MA, USA). A water sample was used as a reference control, growth medium without bacteria was used as a negative control and dilution series of gentamycin (A2712, Merck, Darmstadt, DE) from 32 to 0.01 µg/mL was used as positive control and visually inspected for bacterial growth. The positive control was used as a system suitability test and the results of the antimicrobial assay were only considered valid when positive control was passed. The final concentration of DMSO in the assays was ≤2% (v/v) and was known to have no effect in the tested bacteria. The data was processed using GraphPad Prism 8.

Test [3] concerns E. faecalis (ATCC 29122). The format is cell-based, Enterococcus faecialis. Also noted: MIC (Gentamycin, unit not given): unit not given beside the values. The procedure:
as §1, §2

Test [4] concerns Streptococcus agalactiae (ATCC 12386). It counts as cell-based. More on the design: MIC (Gentamycin, unit not given): unit not given beside the values. The procedure: as §1, §2
The test system of test [5] is E. coli (ATCC 259233). The format is cell-based, Escherichia coli. Also noted: MIC (Gentamycin, unit not given): unit not given beside the values. As to the method: as §1
as §2, with “The final concentration of DMSO in the assays was ≤2% (v/v) and was known to have no effect in the tested bacteria. The data was processed using GraphPad Prism 8.” left out

Consider 1 substance from PMC8198049, “Synthesis and Evaluation of the Tetracyclic Ring-System of Isocryptolepine and Regioisomers for Antimalarial, Antiproliferative and Antimicrobial Activities” (Molecules, 2021).

On to gentamycin [reference compound], for which the “MIC (Gentamycin, unit not given)” value turned out to be 0.25 in test [1]; 0.06 in test [2]; 8 in test [3]; 4 in test [4]; 0.13 in test [5].
